How the values were obtained:
[1] = target: Mitogen-activated protein kinase 9 (Homo sapiens) (UniProt P45984); conditions: Compound concentration 1000.0 nM
[2] = target: Ribosomal protein S6 kinase alpha-2 (Homo sapiens) (UniProt Q15349); conditions: Compound concentration 1000.0 nM
[3] = target: NT-3 growth factor receptor (Homo sapiens) (UniProt Q16288); conditions: Compound concentration 1000.0 nM
[4] = target: Serine/threonine-protein kinase mTOR (Homo sapiens) (UniProt P42345); conditions: Compound concentration 1000.0 nM
[5] = target: Adenosine receptor A2a (Homo sapiens) (UniProt P29274); assay: A2A (h) Eurofins-Cerep binding assay; parameters: ligand concentration 6 nM; conditions: filed as agonist, Compound concentration 10.0 uM
[6] = target: Casein kinase I isoform delta (Homo sapiens) (UniProt P48730); conditions: Compound concentration 1000.0 nM
[7] = target: Tyrosine-protein kinase Fyn (Homo sapiens) (UniProt P06241); conditions: Compound concentration 1000.0 nM
[8] = target: Inhibitor of nuclear factor kappa-B kinase subunit alpha (Homo sapiens) (UniProt O15111); conditions: Compound concentration 1000.0 nM
[9] = target: D(1A) dopamine receptor (Homo sapiens) (UniProt P21728); conditions: Compound concentration 10.0 uM
[10] = target: GABA-A receptor; anion channel (Rattus norvegicus) (UniProt O09028+P15431+P18506+P18508+P19969+P20236+P23574+P23576+P28471+P28473+P30191+P62813+P63079+P63138+Q91ZM7+Q9ES14); conditions: Compound concentration 10.0 uM
[11] = target: Cyclin-dependent kinase 5 (Homo sapiens) (UniProt Q00535); conditions: Compound concentration 1000.0 nM
[12] = target: 3-phosphoinositide-dependent protein kinase 1 (Homo sapiens) (UniProt O15530); conditions: Compound concentration 1000.0 nM
[13] = target: Activin receptor type-2B (Homo sapiens) (UniProt Q13705); conditions: Compound concentration 1000.0 nM
[14] = target: Beta-adrenergic receptor kinase 1 (Homo sapiens) (UniProt P25098); conditions: Compound concentration 1000.0 nM
[15] = target: MAP kinase-interacting serine/threonine-protein kinase 2 (Homo sapiens) (UniProt Q9HBH9); conditions: Compound concentration 1000.0 nM
[16] = target: Neuropeptide Y receptor type 1 (Homo sapiens) (UniProt P25929); assay: Y1 (h) Eurofins-Cerep binding assay; parameters: ligand concentration 0.025 nM; conditions: filed as agonist, Compound concentration 10.0 uM
[17] = target: Cyclin-dependent kinase-like 2 (Homo sapiens) (UniProt Q92772); conditions: Compound concentration 1000.0 nM
[18] = target: Mitogen-activated protein kinase kinase kinase kinase 4 (Homo sapiens) (UniProt O95819); conditions: Compound concentration 1000.0 nM
[19] = target: T1, 5-hydroxytryptamine receptor 2C (Homo sapiens) (UniProt P28335); conditions: Compound concentration 10.0 uM
T1 sequence (whole entry): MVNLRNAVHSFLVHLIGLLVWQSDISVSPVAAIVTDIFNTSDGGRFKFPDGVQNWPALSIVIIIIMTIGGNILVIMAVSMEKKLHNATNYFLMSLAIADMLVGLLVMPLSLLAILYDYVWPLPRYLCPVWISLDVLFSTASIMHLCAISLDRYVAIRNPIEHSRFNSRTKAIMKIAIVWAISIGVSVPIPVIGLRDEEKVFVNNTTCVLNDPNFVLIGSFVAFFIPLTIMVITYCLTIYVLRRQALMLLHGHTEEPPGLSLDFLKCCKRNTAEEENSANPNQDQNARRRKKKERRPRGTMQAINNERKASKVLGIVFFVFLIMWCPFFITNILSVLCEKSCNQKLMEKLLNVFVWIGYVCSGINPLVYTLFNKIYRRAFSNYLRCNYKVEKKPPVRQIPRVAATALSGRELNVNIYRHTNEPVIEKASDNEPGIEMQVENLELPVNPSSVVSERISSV

[20] = target: TGF-beta receptor type-2 (Homo sapiens) (UniProt P37173); conditions: Compound concentration 1000.0 nM
[21] = target: Casein kinase I isoform gamma-2 (Homo sapiens) (UniProt P78368); conditions: Compound concentration 1000.0 nM
[22] = target: Serine/threonine-protein kinase TAO1 (Homo sapiens) (UniProt Q7L7X3); conditions: Compound concentration 1000.0 nM
[23] = target: Type-2 angiotensin II receptor (Homo sapiens) (UniProt P50052); assay: AT2 (h) Eurofins-Cerep binding assay; parameters: ligand concentration 0.01 nM; conditions: filed as agonist, Compound concentration 10.0 uM
[24] = target: Cyclin-dependent kinase 17 (Homo sapiens) (UniProt Q00537); conditions: Compound concentration 1000.0 nM
[25] = target: Serine/threonine-protein kinase pim-2 (Homo sapiens) (UniProt Q9P1W9); conditions: Compound concentration 1000.0 nM
[26] = test system: Leucine-rich repeat serine/threonine-protein kinase 2 (Homo sapiens), Q5S007 [G2019S]; conditions: Compound concentration 1000.0 nM
[27] = target: Translocator protein (Rattus norvegicus) (UniProt P16257); assay: BZD (peripheral) Eurofins-Cerep binding assay; parameters: ligand concentration 0.2 nM; conditions: filed as antagonist, Compound concentration 10.0 uM
[28] = target: Serine/threonine-protein kinase PAK 2 (Homo sapiens) (UniProt Q13177); conditions: Compound concentration 1000.0 nM
[29] = target: T2, Muscarinic acetylcholine receptor M5 (Homo sapiens) (UniProt P08912); assay: M5 (h) Eurofins-Cerep binding assay; parameters: ligand concentration 0.3 nM; conditions: filed as antagonist, Compound concentration 10.0 uM
T2 sequence (whole entry): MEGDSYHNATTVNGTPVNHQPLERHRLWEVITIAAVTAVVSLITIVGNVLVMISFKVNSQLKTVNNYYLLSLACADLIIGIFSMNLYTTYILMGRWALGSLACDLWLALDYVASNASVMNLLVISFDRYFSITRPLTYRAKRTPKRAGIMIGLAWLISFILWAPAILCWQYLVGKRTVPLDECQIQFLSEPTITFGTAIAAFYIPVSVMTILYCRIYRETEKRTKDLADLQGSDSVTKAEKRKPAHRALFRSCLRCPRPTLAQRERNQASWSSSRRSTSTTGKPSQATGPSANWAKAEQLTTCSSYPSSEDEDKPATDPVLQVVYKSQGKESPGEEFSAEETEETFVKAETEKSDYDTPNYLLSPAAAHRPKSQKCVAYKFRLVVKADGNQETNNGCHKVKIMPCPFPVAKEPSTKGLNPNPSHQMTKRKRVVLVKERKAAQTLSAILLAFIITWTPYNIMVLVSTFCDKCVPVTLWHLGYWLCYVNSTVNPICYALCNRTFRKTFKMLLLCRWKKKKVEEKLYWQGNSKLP

[30] = target: Muscarinic acetylcholine receptor M3 (Homo sapiens) (UniProt P20309); conditions: Compound concentration 10.0 uM
[31] = target: Protein-tyrosine kinase 6 (Homo sapiens) (UniProt Q13882); conditions: Compound concentration 1000.0 nM
Chain of Protein-tyrosine kinase 6 (Homo sapiens) (Q13882 whole entry, looked up): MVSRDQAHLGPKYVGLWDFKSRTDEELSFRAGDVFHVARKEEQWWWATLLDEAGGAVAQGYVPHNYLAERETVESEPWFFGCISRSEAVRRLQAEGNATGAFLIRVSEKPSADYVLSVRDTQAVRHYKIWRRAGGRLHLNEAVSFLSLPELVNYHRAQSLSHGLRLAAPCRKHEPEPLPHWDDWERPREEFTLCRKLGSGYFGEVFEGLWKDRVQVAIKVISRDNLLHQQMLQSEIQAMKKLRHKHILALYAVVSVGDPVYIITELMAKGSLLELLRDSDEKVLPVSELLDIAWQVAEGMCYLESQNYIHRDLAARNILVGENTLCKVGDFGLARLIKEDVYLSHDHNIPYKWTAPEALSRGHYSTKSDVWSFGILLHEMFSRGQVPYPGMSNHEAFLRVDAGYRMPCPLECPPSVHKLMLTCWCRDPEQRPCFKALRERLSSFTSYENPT

Chain of Cyclin-dependent kinase 5 (Homo sapiens) (Q00535 whole entry, looked up): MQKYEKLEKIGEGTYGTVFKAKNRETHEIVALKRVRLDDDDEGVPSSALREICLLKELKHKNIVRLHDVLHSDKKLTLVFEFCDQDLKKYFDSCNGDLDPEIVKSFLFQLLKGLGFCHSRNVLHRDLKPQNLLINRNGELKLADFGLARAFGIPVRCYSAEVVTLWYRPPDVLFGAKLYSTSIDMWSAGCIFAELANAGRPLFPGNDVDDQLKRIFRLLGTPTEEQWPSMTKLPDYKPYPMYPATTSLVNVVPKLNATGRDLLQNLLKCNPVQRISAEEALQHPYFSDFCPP
Chain of Serine/threonine-protein kinase PAK 2 (Homo sapiens) (Q13177 whole entry): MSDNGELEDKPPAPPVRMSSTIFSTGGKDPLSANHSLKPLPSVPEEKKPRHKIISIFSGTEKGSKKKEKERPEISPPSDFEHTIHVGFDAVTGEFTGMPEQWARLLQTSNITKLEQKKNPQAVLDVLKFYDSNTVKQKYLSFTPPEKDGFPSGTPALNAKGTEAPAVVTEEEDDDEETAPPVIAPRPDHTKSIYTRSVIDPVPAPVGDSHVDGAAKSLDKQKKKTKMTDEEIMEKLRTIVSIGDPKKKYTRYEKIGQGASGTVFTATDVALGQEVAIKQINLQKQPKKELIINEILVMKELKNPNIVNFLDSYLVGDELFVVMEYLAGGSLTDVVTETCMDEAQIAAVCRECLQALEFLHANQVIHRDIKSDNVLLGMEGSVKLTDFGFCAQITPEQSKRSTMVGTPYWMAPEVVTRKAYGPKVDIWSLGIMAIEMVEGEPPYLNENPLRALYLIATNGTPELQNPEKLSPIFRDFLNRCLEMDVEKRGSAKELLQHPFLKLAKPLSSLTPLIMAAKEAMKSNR
Chain of Adenosine receptor A2a (Homo sapiens) (P29274 whole entry, canonical isoform): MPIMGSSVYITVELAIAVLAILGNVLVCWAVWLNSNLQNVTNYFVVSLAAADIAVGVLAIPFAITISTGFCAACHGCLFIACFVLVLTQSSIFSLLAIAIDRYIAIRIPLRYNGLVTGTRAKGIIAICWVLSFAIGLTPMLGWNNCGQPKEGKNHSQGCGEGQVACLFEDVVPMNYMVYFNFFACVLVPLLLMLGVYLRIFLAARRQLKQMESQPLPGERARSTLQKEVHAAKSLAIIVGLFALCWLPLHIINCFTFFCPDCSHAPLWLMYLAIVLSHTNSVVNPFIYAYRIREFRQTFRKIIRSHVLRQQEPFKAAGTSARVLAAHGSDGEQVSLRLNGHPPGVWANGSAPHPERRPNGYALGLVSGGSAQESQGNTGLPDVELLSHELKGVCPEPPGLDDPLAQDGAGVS
Chain of Serine/threonine-protein kinase TAO1 (Homo sapiens) (Q7L7X3 whole entry): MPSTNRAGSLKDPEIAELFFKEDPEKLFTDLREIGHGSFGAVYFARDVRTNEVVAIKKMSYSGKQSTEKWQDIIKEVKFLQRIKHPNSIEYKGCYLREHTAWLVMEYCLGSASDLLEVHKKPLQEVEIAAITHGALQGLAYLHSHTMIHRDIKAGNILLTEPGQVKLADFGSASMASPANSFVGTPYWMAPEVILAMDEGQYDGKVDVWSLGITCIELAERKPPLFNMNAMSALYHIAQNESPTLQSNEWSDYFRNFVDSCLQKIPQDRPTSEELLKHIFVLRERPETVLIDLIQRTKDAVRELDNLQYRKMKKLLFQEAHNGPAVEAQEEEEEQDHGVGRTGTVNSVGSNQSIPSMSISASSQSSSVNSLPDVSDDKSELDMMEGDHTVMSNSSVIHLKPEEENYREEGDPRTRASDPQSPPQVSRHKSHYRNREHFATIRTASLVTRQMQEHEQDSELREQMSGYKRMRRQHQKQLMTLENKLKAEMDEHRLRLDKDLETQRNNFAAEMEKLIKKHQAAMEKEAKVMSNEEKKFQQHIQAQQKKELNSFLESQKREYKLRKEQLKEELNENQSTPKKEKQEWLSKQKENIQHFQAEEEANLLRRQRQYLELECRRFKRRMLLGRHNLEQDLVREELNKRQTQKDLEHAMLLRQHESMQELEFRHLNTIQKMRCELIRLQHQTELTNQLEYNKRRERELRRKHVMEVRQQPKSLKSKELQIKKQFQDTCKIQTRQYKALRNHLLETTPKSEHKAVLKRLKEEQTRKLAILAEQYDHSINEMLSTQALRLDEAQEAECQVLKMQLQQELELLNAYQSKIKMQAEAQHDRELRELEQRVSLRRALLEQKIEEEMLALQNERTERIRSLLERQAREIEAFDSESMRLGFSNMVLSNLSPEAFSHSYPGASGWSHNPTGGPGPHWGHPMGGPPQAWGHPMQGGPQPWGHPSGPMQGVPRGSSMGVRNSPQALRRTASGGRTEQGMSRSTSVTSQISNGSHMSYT
Chain of Cyclin-dependent kinase 17 (Homo sapiens) (Q00537 whole entry, looked up): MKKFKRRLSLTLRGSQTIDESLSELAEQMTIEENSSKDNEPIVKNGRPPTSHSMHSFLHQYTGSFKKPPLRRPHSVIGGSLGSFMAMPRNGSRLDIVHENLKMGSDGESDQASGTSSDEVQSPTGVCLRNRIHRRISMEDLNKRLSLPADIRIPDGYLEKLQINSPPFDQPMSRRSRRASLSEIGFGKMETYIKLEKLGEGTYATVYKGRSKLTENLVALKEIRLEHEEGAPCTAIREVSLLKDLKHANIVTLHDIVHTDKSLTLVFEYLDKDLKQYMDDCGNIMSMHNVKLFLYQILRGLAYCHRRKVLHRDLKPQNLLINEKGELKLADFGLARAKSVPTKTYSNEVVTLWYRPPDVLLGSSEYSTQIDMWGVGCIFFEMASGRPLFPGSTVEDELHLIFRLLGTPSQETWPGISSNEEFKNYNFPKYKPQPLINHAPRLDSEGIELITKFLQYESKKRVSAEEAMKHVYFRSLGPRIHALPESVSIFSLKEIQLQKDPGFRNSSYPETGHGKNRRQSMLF
Chain of 3-phosphoinositide-dependent protein kinase 1 (Homo sapiens) (O15530 whole entry): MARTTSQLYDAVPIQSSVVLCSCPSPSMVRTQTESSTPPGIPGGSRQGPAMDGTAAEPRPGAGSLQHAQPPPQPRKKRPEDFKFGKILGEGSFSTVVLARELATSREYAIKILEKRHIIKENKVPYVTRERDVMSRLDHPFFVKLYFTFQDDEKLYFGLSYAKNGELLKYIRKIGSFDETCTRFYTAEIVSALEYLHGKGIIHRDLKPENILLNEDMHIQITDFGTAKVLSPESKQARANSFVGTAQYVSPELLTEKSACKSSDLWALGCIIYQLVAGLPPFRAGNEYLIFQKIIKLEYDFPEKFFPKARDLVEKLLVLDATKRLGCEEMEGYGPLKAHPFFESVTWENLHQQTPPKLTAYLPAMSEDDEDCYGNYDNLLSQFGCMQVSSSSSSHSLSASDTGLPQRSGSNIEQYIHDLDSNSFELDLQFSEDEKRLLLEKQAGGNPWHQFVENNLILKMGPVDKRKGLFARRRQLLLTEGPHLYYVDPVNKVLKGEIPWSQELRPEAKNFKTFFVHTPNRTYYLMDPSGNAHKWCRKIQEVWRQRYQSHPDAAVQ
Chain of Muscarinic acetylcholine receptor M3 (Homo sapiens) (P20309 whole entry, looked up): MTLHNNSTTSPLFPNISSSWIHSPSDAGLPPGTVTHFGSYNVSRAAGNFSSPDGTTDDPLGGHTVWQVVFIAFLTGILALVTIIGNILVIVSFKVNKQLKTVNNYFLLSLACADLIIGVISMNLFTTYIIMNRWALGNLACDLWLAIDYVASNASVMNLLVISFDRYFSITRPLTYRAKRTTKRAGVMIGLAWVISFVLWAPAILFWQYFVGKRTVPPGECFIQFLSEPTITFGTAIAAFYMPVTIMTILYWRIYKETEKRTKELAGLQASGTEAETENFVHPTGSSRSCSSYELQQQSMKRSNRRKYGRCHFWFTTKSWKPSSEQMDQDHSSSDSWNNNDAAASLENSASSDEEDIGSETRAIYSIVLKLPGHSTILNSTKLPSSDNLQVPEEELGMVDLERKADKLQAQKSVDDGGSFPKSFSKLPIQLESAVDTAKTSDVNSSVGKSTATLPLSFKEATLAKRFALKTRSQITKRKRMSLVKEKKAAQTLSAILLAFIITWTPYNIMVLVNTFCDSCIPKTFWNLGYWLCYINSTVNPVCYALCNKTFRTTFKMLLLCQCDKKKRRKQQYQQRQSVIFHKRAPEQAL
Chain of Tyrosine-protein kinase Fyn (Homo sapiens) (P06241 2-537 limits assumed): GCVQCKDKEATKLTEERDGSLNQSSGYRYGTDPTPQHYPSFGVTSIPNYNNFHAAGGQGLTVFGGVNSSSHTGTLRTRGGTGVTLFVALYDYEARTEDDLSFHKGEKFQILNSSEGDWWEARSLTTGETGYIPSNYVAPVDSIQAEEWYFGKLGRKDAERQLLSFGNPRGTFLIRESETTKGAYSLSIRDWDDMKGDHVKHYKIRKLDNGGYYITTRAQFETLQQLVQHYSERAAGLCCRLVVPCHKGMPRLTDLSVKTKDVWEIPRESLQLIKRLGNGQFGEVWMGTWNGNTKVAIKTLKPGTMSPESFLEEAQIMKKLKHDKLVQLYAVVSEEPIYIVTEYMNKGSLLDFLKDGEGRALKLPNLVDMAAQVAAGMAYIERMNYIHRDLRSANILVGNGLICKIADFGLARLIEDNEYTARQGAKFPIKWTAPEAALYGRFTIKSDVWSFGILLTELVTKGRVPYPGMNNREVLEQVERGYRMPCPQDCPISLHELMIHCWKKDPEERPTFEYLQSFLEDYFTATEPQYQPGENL

Structure (SMILES) | residual activity [1] | residual activity [2] | residual activity [3] | residual activity [4] | % Inhibition of Control Specific Binding (Mean n=2) [5] | residual activity [6] | residual activity [7] | residual activity [8] | inhibition [9] | inhibition [10] | residual activity [11] | residual activity [12] | residual activity [13] | residual activity [14] | residual activity [15] | % Inhibition of Control Specific Binding (Mean n=2) [16] | residual activity [17] | residual activity [18] | inhibition [19] | residual activity [20] | also measured
O=C(NS(=O)(=O)c1ccc(NCC2CCOCC2)c([N+](=O)[O-])c1)c1ccc(N2CCN(Cc3ccc(C(F)(F)F)cc3-c3ccc(Cl)cc3)CC2)cc1Oc1cnc2[nH]ccc2c1 [A-1210227] | 85% | 100% | 100% | 100% | 1.3% | 80% | 100% | 81% | 34.2% | 14.5% | 81% | 70% | 94% | 91% | 83% | 3.1% | 100% | 95% | -0.17% | 76% | residual activity [21]: 100%; residual activity [22]: 87%; % Inhibition of Control Specific Binding (Mean n=2) [23]: 5.3%; residual activity [24]: 100%; residual activity [25]: 73%; residual activity [26]: 88%; % Inhibition of Control Specific Binding (Mean n=2) [27]: 36%; residual activity [28]: 100%; % Inhibition of Control Specific Binding (Mean n=2) [29]: -1.6%; inhibition [30]: 12.6%; residual activity [31]: 100%
CO[C@H]1CC[C@H](CNc2ccc(S(=O)(=O)NC(=O)c3ccc(N4CCN(CC5=C(c6ccc(Cl)cc6)CC(C)(C)CC5)CC4)cc3Oc3cnc4[nH]ccc4c3)cc2[N+](=O)[O-])CC1 [A-1211212] | 82% | 97% | 100% | 50% | -4.4% | 93% | 97% | 100% | 28.2% | 19% | 82% | 72% | 95% | 85% | 73% | 5.9% | 100% | 100% | -4.69% | 74% | residual activity [21]: 80%; residual activity [22]: 88%; % Inhibition of Control Specific Binding (Mean n=2) [23]: 4.7%; residual activity [24]: 99%; residual activity [25]: 88%; residual activity [26]: 100%; % Inhibition of Control Specific Binding (Mean n=2) [27]: 44.9%; residual activity [28]: 68%; % Inhibition of Control Specific Binding (Mean n=2) [29]: 8.6%; inhibition [30]: 3.65%; residual activity [31]: 100%

Source: ChEMBL document CHEMBL4507310, “Data for DCP probe A-1211212” (2021)
